Columns and labels:
[1] = Plasma exposure after oral gavage in mice, LC-MS/MS; format: in vivo; details: mouse, in vivo, po, 25 mg/kg
Experimental: For a number of representative compounds in Table 5, their plasma exposures with oral administration in mice via oral gavage were determined by LC-MS/MS, with the data shown in Table 9.

MOLM-13 = assay: Cell growth inhibition, 4-day proliferation assay, MOLM-13; format: cell-based; details: Homo sapiens, MOLM-13, WST-8 assay, Table 7; read-out: Cell growth inhibition (IC50 (nM)) MOLM-13
MDA-MB-231 = assay: Cell growth inhibition, 4-day proliferation assay, MDA-MB-231; format: cell-based; details: Homo sapiens, MDA-MB-231; WST-8 assay, Table 7; read-out: Cell growth inhibition (IC50 (nM)) MDA-MB-231
Summary of the method: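 Cells seeded at 3,000-10,000/well, treated with serially diluted compounds 4 days at 37 °C, 5% CO2. Viability by WST-8 (10% v/v, 1-2 h, A450); readings normalized to DMSO-treated cells, IC50 by four-parameter nonlinear regression.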

Row | Structure (SMILES) | concentration at 1 h [1] [ng/mL] | concentration at 3 h [1] [ng/mL] | concentration at 6 h [1] [ng/mL] | IC50 (MOLM-13) [nM] | IC50 (MDA-MB-231) [nM]
1 | Cc1nnc(C[C@@H]2N=C(c3ccc(Cl)cc3)c3c(sc(C#CC4(C)COC4)c3C)-n3c(C)nnc32)o1 [Compound 149, (S)-2-((4-(4-chlorophenyl)-3,9-dimethyl-2-((3-methyloxetan-3-yl)ethynyl)-6H-thieno[3,2-f][1,2,4]triazolo[4,3-a][1,4]diazepin-6-yl)methyl)-5-methyl-1,3,4-oxadiazole] | 13000 | 12800 | 6640 | – | –
2 | Cc1nnc(C[C@@H]2N=C(c3ccc(Cl)cc3)c3c(sc(C#CC4CCOCC4)c3C)-n3c(C)nnc32)s1 [Compound 151, (S)-4-(4-chlorophenyl)-3,9-dimethyl-6-((5-methyl-1,3,4-thiadiazol-2-yl)methyl)-2-((tetrahydro-2H-pyran-4-yl)ethynyl)-6H-thieno[3,2-f][1,2,4]triazolo[4,3-a][1,4]diazepine] | 451 | 299 | 115 | 81.6 | –
3 | Cc1c(C#CC2CCOCC2)sc2c1C(c1ccc(Cl)cc1)=N[C@@H](CC(N)=O)c1nnc(C)n1-2 [Compound 152, (S)-2-(4-(4-chlorophenyl)-3,9-dimethyl-2-((tetrahydro-2H-pyran-4-yl)ethynyl)-6H-thieno[3,2-f][1,2,4]triazolo[4,3-a][1,4]diazepin-6-yl)acetamide] | 1120 | 472 | 231 | 30 | –
4 | Cc1c(C#CC2CCOCC2)sc2c1C(c1ccc(Cl)cc1)=N[C@@H](CC(=O)N1CCOCC1)c1nnc(C)n1-2 [Compound 154, (S)-2-(4-(4-chlorophenyl)-3,9-dimethyl-2-((tetrahydro-2H-pyran-4-yl)ethynyl)-6H-thieno[3,2-f][1,2,4]triazolo[4,3-a][1,4]diazepin-6-yl)-1-morpholinoethan-1-one] | 1040 | 372 | 220 | 38.8 | –
5 | Cc1c(C#CC2CCOCC2)sc2c1C(c1ccc(Cl)cc1)=N[C@@H](CC(=O)Nc1ccc(O)cc1)c1nnc(C)n1-2 [Compound 155, (S)-2-(4-(4-chlorophenyl)-3,9-dimethyl-2-((tetrahydro-2H-pyran-4-yl)ethynyl)-6H-thieno[3,2-f][1,2,4]triazolo[4,3-a][1,4]diazepin-6-yl)-N-(4-hydroxyphenyl)acetamide] | 832 | 127 | 42 | 69.3 | –
6 | Cc1c(C#CC2CCOCC2)sc2c1C(c1ccc(Cl)cc1)=N[C@@H](CC(=O)N1CC(F)(F)C1)c1nnc(C)n1-2 [Compound 156, (S)-2-(4-(4-chlorophenyl)-3,9-dimethyl-2-((tetrahydro-2H-pyran-4-yl)ethynyl)-6H-thieno[3,2-f][1,2,4]triazolo[4,3-a][1,4]diazepin-6-yl)-1-(3,3-difluoroazetidin-1-yl)ethan-1-one] | 805 | 473 | 226 | 36.1 | –
7 | Cc1c(C#Cc2cnn(C)c2)sc2c1C(c1ccc(Cl)cc1)=N[C@@H](CC(N)=O)c1nnc(C)n1-2 [Compound 166, (S)-2-(4-(4-chlorophenyl)-3,9-dimethyl-2-((1-methyl-1H-pyrazol-4-yl)ethynyl)-6H-thieno[3,2-f][1,2,4]triazolo[4,3-a][1,4]diazepin-6-yl)acetamide] | 55 | 30 | < 1 | 28.9 | 214 ± 42.2
8 | CCNC(=O)C[C@@H]1N=C(c2ccc(Cl)cc2)c2c(sc(C#Cc3cnn(C)c3)c2C)-n2c(C)nnc21 [Compound 167, (S)-2-(4-(4-chlorophenyl)-3,9-dimethyl-2-((1-methyl-1H-pyrazol-4-yl)ethynyl)-6H-thieno[3,2-f][1,2,4]triazolo[4,3-a][1,4]diazepin-6-yl)-N-ethylacetamide] | 12 | < 1 | < 1 | 26.7 | 129 ± 40
9 | Cc1c(C#Cc2cncn2C)sc2c1C(c1ccc(Cl)cc1)=N[C@@H](CC(N)=O)c1nnc(C)n1-2 [Compound 168, (S)-2-(4-(4-chlorophenyl)-3,9-dimethyl-2-((1-methyl-1H-imidazol-5-yl)ethynyl)-6H-thieno[3,2-f][1,2,4]triazolo[4,3-a][1,4]diazepin-6-yl)acetamide] | 80 | 22 | 20 | 145 | 716 ± 162
10 | CCNC(=O)C[C@@H]1N=C(c2ccc(Cl)cc2)c2c(sc(C#Cc3cncn3C)c2C)-n2c(C)nnc21 [Compound 169, (S)-2-(4-(4-chlorophenyl)-3,9-dimethyl-2-((1-methyl-1H-imidazol-5-yl)ethynyl)-6H-thieno[3,2-f][1,2,4]triazolo[4,3-a][1,4]diazepin-6-yl)-N-ethylacetamide] | 611 | 29 | 5 | 63.9 | 203 ± 57

— US11046709B2, “Fused 1,4-diazepines as BET bromodomain inhibitors” (THE REGENTS OF THE UNIVERSITY OF MICHIGAN, priority 2017, dated 2021)
